In paper PMC11009276, “Design, synthesis, biological assessment and molecular modeling studies of novel imidazothiazole-thiazolidinone hybrids as potential anticancer and anti-inflammatory agents” (Scientific Reports, 2024):
Read-outs that look alike come from different tables or passages of the source.

Experiments:
[1] = test system: gastric mucosa tissue of rats; test: Lipid peroxidation in gastric mucosa; type: in vivo, rat; conditions: oral 0.0942 mmol/kg
Procedure: The compounds screened for ulcerogenic potential were also analysed for lipid peroxidation. Lipid peroxidation is measured as nmolMDA/100 mg of gastric mucosa tissue. […] Thus, it was concluded that protection of gastric mucosa might be related to the inhibition of lipid peroxidation.
Lipid peroxidation in the gastric mucosa was determined using the reported method by Ohkawa H. et al.[61]. The gastric mucosa of the glandular area was scraped off using glass slides after the stomach had been examined for ulcers. Gastric mucosa was weighed (100 mg) and homogenised in 1.8 cm^3 of ice-cold solution of KCl (1.15%). The homogenate is further added with 0.2 cm^3 of 8.1% sodium dodecyl sulphate (SDS), 1.5 cm^3 of acetate buffer, and 1.5 cm^3 of 0.8% thiobarbituric acid. After adding all buffers, the mixture was kept for incubation for 60 min over water bath, maintaining the temperature of the water bath at 95 °C. Later, the mixture was allowed to cool and then extracted with a freshly prepared mixture of n-butanol and pyridine (15:1 v/v), the organic layer obtained was centrifuged at 3000 rpm for about 10 min. The organic layer was separated out and visualised on UV–visible spectrophotometer. Concentration was measured using the following formula: Concentration=Absorbance×volume×109÷1.56×10^5×1000
Results obtained were expressed as nmol MDA/100 mg tissue and extinction coefficient (1.56 × 10^5) cm^-1 M^-1.

[2] = target: Bovine serum albumin (BSA) (Bos taurus, UniProt P02769); test: BSA (protein albumin) denaturation inhibition assay; conditions: for BSA denaturation inhibition assay Mean absorbance ± SEM: 660 nm; for inhibition at 100 µg/mL: read-out: BSA denaturation inhibition assay % inhibition of denaturation, 100 μg/mL
Chain of Bovine serum albumin (BSA) (P02769 25-607): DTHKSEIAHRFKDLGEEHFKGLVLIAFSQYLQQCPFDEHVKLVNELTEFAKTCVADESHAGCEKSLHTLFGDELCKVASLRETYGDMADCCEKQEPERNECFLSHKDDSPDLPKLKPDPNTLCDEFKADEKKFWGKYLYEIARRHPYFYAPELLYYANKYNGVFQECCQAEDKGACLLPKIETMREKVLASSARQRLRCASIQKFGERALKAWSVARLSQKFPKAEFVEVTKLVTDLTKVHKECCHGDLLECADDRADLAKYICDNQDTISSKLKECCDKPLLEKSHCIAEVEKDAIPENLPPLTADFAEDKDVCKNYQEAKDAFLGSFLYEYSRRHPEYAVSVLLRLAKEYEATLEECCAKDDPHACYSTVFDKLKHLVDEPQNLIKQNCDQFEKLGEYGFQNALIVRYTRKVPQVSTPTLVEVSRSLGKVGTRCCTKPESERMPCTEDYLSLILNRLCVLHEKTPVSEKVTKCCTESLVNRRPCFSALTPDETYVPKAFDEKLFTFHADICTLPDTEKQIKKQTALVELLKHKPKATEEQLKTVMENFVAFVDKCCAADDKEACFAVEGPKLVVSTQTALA
Procedure: All the synthesized compounds were evaluated for anti-inflammatory activity by the inhibition of the albumin denaturation technique. […] All the test solutions (1 mL, 100 μg/mL) were then mixed with 1 mL of albumin solution (1%) and phosphate buffer saline and then incubated for around 15 min at 27 ± 1 °C. Further, the denaturation of protein was induced by keeping the reaction mixture on the water bath for 10 min and maintaining the temperature at 60 °C. Once the solution gets cooled, the turbidity was measured using UV–Visible spectrophotometer at 660 nm.

[3] = test system: HCT116 human colorectal cancer cell line; test: MTT cytotoxicity assay, HCT116; conditions: HCT-116, 72 h, read-out: IC50 (µM) (Mean ± SD) HCT116
Procedure: (§1) All the synthesized imidazothiazole derivatives linked with thiazolidinone moiety (4a-g and 5a-d, Fig. 4) were evaluated for their in- vitro anticancer activities against three selected human cancer cell lines namely non-small lung (A549), breast (MCF7) and colorectal (HCT116) and one normal human embryonic kidney cell line (HEK293) using the 3‐(4,5‐Dimethylthiazol‐2‐yl)-2,5‐Diphenyltetrazolium Bromide (MTT) assay method. […] Compounds were tested against selected cancer cell lines namely A549 (Lung), MCF-7(Breast) HCT116 (Colon), normal human embryonic kidney cell line (HEK293) and procured from National Centre for Cell Science Complex (NCCS) Pune University, India. Into a 96 well plate, cells were seeded into each well (3 × 10^3 cells/ per well), the plate were incubated for 24 h, after that the culture medium was discarded and replaced with fresh medium along with our newly synthesized test compounds in different concentration (10, 20, 40 and 80 µM) followed by incubation for 72 h. […] Finally, each well is treated with DMSO (100 µL) and swirled to dissolve the dark crystals of formazan. ELISA reader was used to measure the absorbance at 570 nm. The experiment was repeated three times; Graph pad prism and excel are used to calculate the IC50 values[51].

[4] = test system: A549 (Lung) cancer cell line; test: MTT cytotoxicity assay, A549; conditions: Homo sapiens, A549, 72 h, read-out: IC50 (µM) (Mean ± SD) A549
Procedure: as §1

gastric mucosa of rats = test: Ulcerogenic activity; type: in vivo, rat; conditions: oral 0.0942 mmol/kg
Procedure: The Compounds (4a-d, 5a-b) which were found potent as anti-inflammatory agents were further screened for their ulcerogenic risk. The compounds and the standard drug were tested at an oral dose of 0.0942 mmol/kg.
Animals were divided into different groups consisting of 6 rats per group. […] The control group received 0.5% of the carboxymethylcellulose (CMC) solution. […] 24 h before the test compounds were administered. After receiving the medication, the rats were given regular food for 17 h and then sacrificed. The stomach was taken out and opened along its greater curvature before being gently cleansed by dipping it in normal saline and then washing it with distilled water. The mucosal injury/damage was examined thoroughly using a magnifying glass. The mucosal injury in each stomach was scored using the following score system: 0.5: Redness; 1.0: Spot Ulcers; 1.5: Hemorrhagic Streaks; 2.0: Ulcers > 3 but 5, 3.0: Ulcers > 5. The severity index (SI) of stomach mucosal injury was calculated as the mean score of each treated group minus the mean score of the control group.

[5] = test system: HEK293 human embryonic kidney cell line; test: MTT cytotoxicity assay, normal cell line HEK293; type: cell-based; conditions: read-out: IC50 (Mean ± SD) HEK293
Procedure: All the synthesized imidazothiazole derivatives linked with thiazolidinone moiety (4a-g and 5a-d, Fig. 4) were evaluated for their in- vitro anticancer activities against three selected human cancer cell lines namely non-small lung (A549), breast (MCF7) and colorectal (HCT116) and one normal human embryonic kidney cell line (HEK293) using the 3‐(4,5‐Dimethylthiazol‐2‐yl)-2,5‐Diphenyltetrazolium Bromide (MTT) assay method. […]. […].
Cytotoxicity study of the newly synthesized derivatives 4a-g and 5a-d was performed by MTT colorimetric assay method. […] Compounds were tested against selected cancer cell lines namely A549 (Lung), MCF-7(Breast) HCT116 (Colon), normal human embryonic kidney cell line (HEK293) and procured from National Centre for Cell Science Complex (NCCS) Pune University, India. Into a 96 well plate, cells were seeded into each well (3 × 10^3 cells/ per well), the plate were incubated for 24 h, after that the culture medium was discarded and replaced with fresh medium along with our newly synthesized test compounds in different concentration (10, 20, 40 and 80 µM) followed by incubation for 72 h. Further, the media of each well of the plates were aspirated with the addition of 100 µL MTT solution followed by incubation for the next 5 h at 37 °C. Finally, each well is treated with DMSO (100 µL) and swirled to dissolve the dark crystals of formazan. ELISA reader was used to measure the absorbance at 570 nm. The experiment was repeated three times; Graph pad prism and excel are used to calculate the IC50 values.

[6] = test system: carrageenan-induced rat hind paw edema; test: Carrageenan-induced rat paw edema inhibition assay; type: in vivo; conditions: after 4 h; for % inhibition (paw edema) / Increase in Paw volume SEM: oral 0.0314 mmol/kg; for Increase in Paw volume SEM: n = 6; for Activity relative to standard drug: relative to diclofenac sodium
Procedure: The anti-inflammatory efficacy of the newly synthesised compounds was assessed using a carrageenan-induced rat hind paw edema technique The animals were divided into groups of six at random, fasted for 24 h before to the experiment, and given free access to water. 0.5% CMC solution was given to the control group only. […] One hour after the administration of the test compounds and the reference drug, 0.1 mL of a 1% carrageenan solution in saline was subcutaneously injected into the subplantar area of the right hind paw of each rat. The right hind paw volume was measured using a Digital Plethysmometer PLM-01 Plus (Orchid Scientifics and Innovatives India Pvt. Ltd., Mumbai, India) at 3 and 4 h after carrageenan therapy. The following calculation was used to compute the percent edema inhibition from the mean effect in the treated and control animals: Percent edema inhibition=Vc-Vt/Vc×100 where Vc denotes the mean increase in paw volume in the control group of rats and Vt denotes the mean increase in paw volume in rats treated with test chemicals. After a 15-day washout period, the same group of rats utilised for the anti-inflammatory activity were employed for the ulcerogenic activity.

[7] = test system: MCF7 human breast cancer cell line; test: MTT cytotoxicity assay, MCF7; conditions: MCF7, 72 h, read-out: IC50 (µM) (Mean ± SD) MCF7
Procedure: as §1

EGFR kinase = EGFR kinase (Homo sapiens, UniProt P00533); test: In vitro EGFR kinase inhibitory assay (ELISA, phospho-EGFR in A549 cell lysates)
Chain of EGFR kinase (P00533 25-1210): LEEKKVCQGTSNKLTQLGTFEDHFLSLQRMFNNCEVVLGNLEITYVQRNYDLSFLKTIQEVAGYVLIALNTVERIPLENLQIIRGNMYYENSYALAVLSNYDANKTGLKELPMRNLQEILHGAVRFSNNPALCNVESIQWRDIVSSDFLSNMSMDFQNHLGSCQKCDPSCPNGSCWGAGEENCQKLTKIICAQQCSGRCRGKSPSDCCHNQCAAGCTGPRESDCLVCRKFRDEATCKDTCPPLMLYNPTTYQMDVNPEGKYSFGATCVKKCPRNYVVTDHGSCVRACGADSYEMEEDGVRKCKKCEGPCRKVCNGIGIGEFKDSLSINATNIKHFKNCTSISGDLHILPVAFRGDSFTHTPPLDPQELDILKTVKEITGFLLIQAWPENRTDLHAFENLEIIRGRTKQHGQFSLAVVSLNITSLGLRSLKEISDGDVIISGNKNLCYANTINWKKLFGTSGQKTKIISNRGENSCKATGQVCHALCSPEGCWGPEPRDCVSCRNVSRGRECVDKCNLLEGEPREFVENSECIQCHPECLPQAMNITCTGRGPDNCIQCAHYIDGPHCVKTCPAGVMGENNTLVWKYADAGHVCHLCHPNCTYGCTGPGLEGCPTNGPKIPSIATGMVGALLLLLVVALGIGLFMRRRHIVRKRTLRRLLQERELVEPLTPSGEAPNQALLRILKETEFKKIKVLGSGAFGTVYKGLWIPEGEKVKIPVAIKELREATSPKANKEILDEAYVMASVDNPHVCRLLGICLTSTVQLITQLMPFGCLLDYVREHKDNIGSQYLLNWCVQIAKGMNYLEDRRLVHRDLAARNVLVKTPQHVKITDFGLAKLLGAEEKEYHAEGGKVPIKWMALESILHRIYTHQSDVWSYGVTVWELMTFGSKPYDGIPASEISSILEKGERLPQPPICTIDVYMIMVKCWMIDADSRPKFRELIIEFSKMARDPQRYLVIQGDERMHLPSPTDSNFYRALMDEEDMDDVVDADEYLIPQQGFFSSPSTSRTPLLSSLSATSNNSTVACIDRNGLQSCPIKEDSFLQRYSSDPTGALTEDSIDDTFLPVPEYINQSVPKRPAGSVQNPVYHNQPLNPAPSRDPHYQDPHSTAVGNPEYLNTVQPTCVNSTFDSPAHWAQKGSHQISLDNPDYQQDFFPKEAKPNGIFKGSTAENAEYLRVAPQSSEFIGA
Procedure: For all the synthesized compounds, the overall methodology of a spectrophotometric assay for the inhibition of EGFR tyrosine kinase activity was evaluated in human A549 cells, which expressed high levels of EGFR protein. […] Cells were then washed with cold PBS, lysed in 0.2 ml/well of HNTG buffer (50 mM HEPES [(4‐(2‐hydroxyethyl)‐piperazineethanesulfonic acid; pH 7.5], 150 mM NaCl, 1.5 mM MgCl, 10% glycerol, 1% Triton X‐100, 0.5 mM sodium fluoride, 2 g/ml aprotinin, 2 g/ml pepstatin A, 1 mM sodium orthovanadate, 2 g/ml leupeptin, 1 mM phenyl methyl sulfonyl fluoride) for 10 min, and the lysates were collected as the supernatant fraction after a 12‐min centrifugation at 15,000 g. The specific EGFR concentration was measured by ELISA assay. Briefly, the wells of ELISA plates were coated with supernatant fraction and incubated at 4 °C overnight After washing three times with buffer (20 mM PBS, pH 7.2 containing 0.05% Tween‐20), the wells were blocked with 1% BSA for 2–3 h at room temperature. Further, the plate was washed and then mouse serum at 1,000‐fold dilution was added, followed by washing and incubation with phospho‐EGFR antibody (Invitrogen) at 4 °C overnight. The wells were washed and incubated with substrate solution (o‐phenylenediamine dihydrochloride), for 30 min, and the absorbance read on an ELISA plate reader at 490 nm[52]. %Inhibition=mean OD of untreated group-mean OD of treated group/mean OD of untreated group)×100.

[8] = HEK293, MTT, 72 h, normal cell line

Structure (SMILES): O=C1CSC(c2c(-c3ccccc3)nc3sccn23)N1c1ccc(Br)cc1 (centres unmarked) [Compound 5b, 3-(4-Bromophenyl)-2-(6-phenylimidazo[2,1-b]thiazol-5-yl) thiazolidin-4-one]
- Lipid peroxidation [1]: 5.68 ± 0.071 Nmol MDA/100 mg tissue
- BSA denaturation inhibition assay Mean absorbance ± SEM ([2]; 100 μg/mL): 0.317 ± 0.003
- inhibition at 100 µg/mL [2]: 76.6%
- IC50 [3]: 58.6 ± 4.51 µM
- IC50 [4]: 35.5 ± 2.15 µM
- Mean ulcer severity index ± SEM (gastric mucosa of rats): 1.000 ± 0.258
- melting point: 159 to 161 °C
- IC50 [5, 8]: 105 ± 3.5 µM
- % inhibition (paw edema) [6]: 74.78%
- Increase in Paw volume SEM [6]: 0.133 ± 0.008
- Activity relative to standard drug [6]: 93.10
- IC50 [7]: 44.2 ± 0.85 µM
- IC50 (EGFR kinase): 33.1 ± 1.58 µM

Structure (SMILES): Cc1ccc(N2C(=O)CSC2c2c(-c3ccccc3)nc3sccn23)cc1 (centres unmarked) [Compound 5c]
- BSA denaturation inhibition assay % inhibition of denaturation ([2]; 100 μg/mL): 65.28%
- BSA denaturation inhibition assay Mean absorbance ± SEM ([2]; 100 μg/mL): 0.314 ± 0.003
- inhibition at 100 µg/mL [2]: 79.9%
- IC50 [3]: 60 ± 6.44 µM
- IC50 [4]: 34.2 ± 2.82 µM
- melting point: 153 to 155 °C
- IC50 [5, 8]: 109 ± 5.32 µM
- IC50 [7]: 35.8 ± 4.61 µM
- IC50 (EGFR kinase): 29.3 ± 4.61 µM

Structure (SMILES): C#Cc1cccc(Nc2ncnc3cc(OCCOC)c(OCCOC)cc23)c1 [Erlotinib, reference compound]
- IC50 [3]: 12.5 ± 1.87 µM
- IC50 [4]: 8.34 ± 8.09 µM
- IC50 ([5]; HEK293, 72 h): 80.2 ± 1.3 µM
- IC50 [7]: 10.7 ± 5.65 µM

Structure (SMILES): Cc1ccc(N2C(=O)C(C)SC2c2c(-c3ccccc3)nc3sccn23)cc1 (centres unmarked) [Compound 4f]
- BSA denaturation inhibition assay Mean absorbance ± SEM ([2]; 100 μg/mL): 0.288 ± 0.002
- inhibition at 100 µg/mL [2]: 60.6%
- IC50 [3]: 47.6 ± 8.97 µM
- IC50 [4]: 40.22 ± 0.38 µM
- melting point: 155 to 157 °C
- IC50 [5, 8]: 147 ± 4.57 µM
- IC50 [7]: 33.7 ± 0.84 µM
- IC50 (EGFR kinase): 49.7 ± 4.89 µM

Structure (SMILES): O=C1CSC(c2c(-c3ccccc3)nc3sccn23)N1c1ccc(Cl)cc1 (centres unmarked) [Compound 5a, 3-(4-Chlorophenyl)-2-(6-phenylimidazo[2,1-b]thiazol-5-yl) thiazolidin-4-one]
- Lipid peroxidation [1]: 5.75 ± 0.102 Nmol MDA/100 mg tissue
- BSA denaturation inhibition assay Mean absorbance ± SEM ([2]; 100 μg/mL): 0.323 ± 0.002
- inhibition at 100 µg/mL [2]: 79.9%
- IC50 [3]: 58.8 ± 3.14 µM
- IC50 [4]: 42.7 ± 3.35 µM
- Mean ulcer severity index ± SEM (gastric mucosa of rats): 1.083 ± 0.238
- melting point: 177 to 179 °C
- IC50 [5, 8]: 117 ± 5.69 µM
- % inhibition (paw edema) [6]: 76.24%
- Increase in Paw volume SEM [6]: 0.163 ± 0.018
- Activity relative to standard drug [6]: 94.92
- IC50 [7]: 35.1 ± 1.25 µM
- IC50 (EGFR kinase): 30.1 ± 4.17 µM

Structure (SMILES): CC1SC(c2c(-c3ccccc3)nc3sccn23)N(c2ccc(Cl)cc2Cl)C1=O (centres unmarked) [Compound 4d, 3-(2,4-Dichlorophenyl)-5-methyl-2-(6-phenylimidazo[2,1-b]thiazol-5-yl)thiazolidin-4-one]
- Lipid peroxidation [1]: 6.16 ± 0.135 Nmol MDA/100 mg tissue
- BSA denaturation inhibition assay Mean absorbance ± SEM ([2]; 100 μg/mL): 0.326 ± 0.002
- inhibition at 100 µg/mL [2]: 82%
- IC50 [3]: 49.5 ± 7.14 µM
- IC50 [4]: 31.8 ± 1.1 µM
- Mean ulcer severity index ± SEM (gastric mucosa of rats): 1.250 ± 0.281
- melting point: 151 to 153 °C
- IC50 [5, 8]: 181 ± 5.74 µM
- % inhibition (paw edema) [6]: 67.78%
- Activity relative to standard drug [6]: 84.39
- IC50 [7]: 35.8 ± 1.03 µM
- IC50 (EGFR kinase): 36 ± 1.89 µM

Structure (SMILES): COc1ccc(N2C(=O)CSC2c2c(-c3ccccc3)nc3sccn23)cc1 (centres unmarked) [Compound 5d, 3-(4-Methoxyphenyl)-2-(6-phenylimidazo[2,1-b]thiazol-5-yl) thiazolidin-4-one]
- BSA denaturation inhibition assay Mean absorbance ± SEM ([2]; 100 μg/mL): 0.287 ± 0.004
- inhibition at 100 µg/mL [2]: 59.9%
- IC50 [3]: 65.2 ± 0.9 µM
- IC50 [4]: 33.1 µM
- melting point: 160 to 162 °C
- IC50 [5, 8]: 111.8 ± 0.25 µM
- IC50 [7]: 38.1 ± 0.89 µM
- IC50 (EGFR kinase): 48 ± 1.97 µM

Structure (SMILES): COc1ccc(N2C(=O)C(C)SC2c2c(-c3ccccc3)nc3sccn23)cc1 (centres unmarked) [Compound 4g, 3-(4-Methoxyphenyl)-5-methyl-2-(6-phenylimidazo[2,1-b]thiazol-5-yl) thiazolidin-4-one]
- BSA denaturation inhibition assay Mean absorbance ± SEM ([2]; 100 μg/mL): 0.291 ± 0.011
- inhibition at 100 µg/mL [2]: 62.1%
- IC50 [3]: 76.3 ± 5.66 µM
- IC50 [4]: 70.1 ± 2.02 µM
- melting point: 162 to 164 °C
- IC50 [5, 8]: 164 ± 4.69 µM
- IC50 [7]: 52.9 ± 1.65 µM
- IC50 (EGFR kinase): 46.5 ± 7.14 µM

Structure (SMILES): CC1SC(c2c(-c3ccccc3)nc3sccn23)N(c2ccc([N+](=O)[O-])cc2)C1=O (centres unmarked) [Compound 4e, 5-Methyl-3-(4-nitrophenyl)-2-(6-phenylimidazo[2,1-b]thiazol-5-yl) thiazolidin-4-one]
- BSA denaturation inhibition assay Mean absorbance ± SEM ([2]; 100 μg/mL): 0.289 ± 0.012
- inhibition at 100 µg/mL [2]: 61.1%
- IC50 [3]: 89.9 ± 4.89 µM
- IC50 [4]: 50.6 ± 0.7 µM
- melting point: 187 to 189 °C
- IC50 [5, 8]: 125 ± 5.8 µM
- IC50 [7]: 43.6 ± 7.19 µM
- IC50 (EGFR kinase): 57.1 ± 0.38 µM
